Measurements as given in patent US20180332790A1 (priority 2015, published 2018).
“And” between values parts separate entries of the source, which are not always exact repeats. Equal values may be shown once. “Also recorded” adds a separate entry of the source.

Tests used:
maize [1] = details: in vivo
maize [2] = details: in vivo; remark: listed apart in the source

CCCCCCCC/C=C\CCCCCCCC(=O)O[C@H](COC(=O)CCCCCCCCCCCCCCCCC)COP(=O)(O)OCCN [1-stearyl-2-oleoyl-sn-phosphatidylethanolamine]
de novo haploid induction (in words) (maize [1]): haploid inducing compound

CCCCC/C=C\C/C=C\C/C=C\C/C=C\CCCC(=O)OC [AAME, arachidonic acid methyl ester]
de novo haploid induction (in words) (maize [1]): triggered de novo haploid induction

CCCCCCCCCCCCCCCCCC(=O)OC[C@H](COP(=O)([O-])OCC[N+](C)(C)C)OC(=O)CCCCCCCCCCCCCCCCC [DSPC, 1,2-distearoyl-sn-glycero-3-phosphatidyl choline]
de novo haploid formation (in words) (maize [1]): achieved de novo haploid formation | de novo haploid induction (in words) (maize [1]): triggered de novo haploid induction; also recorded: highly active

CCCCC/C=C\C/C=C\CCCCCCCC(=O)O [LLA, linoleic acid]
decrease in embryo abortion frequency compared to control buffer (maize [2]): 2.9% | effect on embryo abortion and kernel formation in haploid inducer crosses (in words) (maize [2]): reduces the rate of embryo abortion and increases the rate of kernel formation; also recorded: increase the rate of viable kernel formation by reducing fertilization failure and embryo abortion | effect on haploid induction rate / number of haploids in haploid inducer crosses (in words) (maize [2]): boosted the haploid induction rate; also recorded: increase the number of haploids formed and/or the rate of haploid formation | increase in haploid induction rate compared to control buffer (maize [2]): 1.5% | increase in haploids recovered per ear compared to control buffer (maize [2]): 7.6 haploids per ear | increase in number of kernels per ear compared to control buffer (maize [2]): 41 per ear | de novo haploid induction (in words) (maize [1]): triggered de novo haploid induction

CCCCC/C=C\C/C=C\CCCCCCCC(=O)OCC [LLAEE, linoleic acid ethyl ester]
AVERAGE/EAR HIR (maize [2]): 13.0% and 15.4% | AVERAGE/EAR haploids (maize [2]): 23.1 and 27.9 | AVERAGE/EAR k. a. rate (maize [2]): 29.9% and 33.0% | AVERAGE/EAR k. a. rate, vs control (maize [2]): −3.7% and −2.9% | AVERAGE/EAR kernels (maize [2]): 194.1 and 194.6 | AVERAGE/EAR kernels, vs control (maize [2]): +43.3 | decrease in embryo abortion frequency compared to control buffer (maize [2]): 3.7% | effect on embryo abortion and kernel formation in haploid inducer crosses (in words) (maize [2]): reduces the rate of embryo abortion and increases the rate of kernel formation; also recorded: increase the rate of viable kernel formation by reducing fertilization failure and embryo abortion | effect on haploid induction rate / number of haploids in haploid inducer crosses (in words) (maize [2]): boosted the haploid induction rate; also recorded: increase the number of haploids formed and/or the rate of haploid formation | increase in haploid induction rate compared to control buffer (maize [2]): 2.4% | increase in haploids recovered per ear compared to control buffer (maize [2]): over 8 haploids per ear | increase in number of kernels per ear compared to control buffer (maize [2]): over 43 per ear

CCCCCCCC/C=C\CCCCCCCC(=O)OCC [OAEE, oleic acid ethyl ester]
de novo haploid induction (in words) (maize [1]): triggered de novo haploid induction

CCCCCCCCCCCCCCCC(=O)OCC [PAEE, palmitic acid ethyl ester]
de novo haploid induction (in words) (maize [1]): induces haploids

CCCCC/C=C\C/C=C\C/C=C\C/C=C\CCCC(=O)O [arachidonic acid]
de novo haploid induction (in words) (maize [1]): triggered

CC1=C(CC/C(C)=C/CCC2=CC[C@H](C3=CC(=O)O[C@H]3O)O[C@H]2O)C(C)(C)CCC1 [manoalide, reference compound]
de novo haploid induction (in words) (maize [1]): triggered de novo haploid induction; also recorded: able to induce haploid formation de novo
